This is an account of results in ChEMBL document CHEMBL1133312, “S-nitrosothiols as novel, reversible inhibitors of human rhinovirus 3C protease” (Bioorg Med Chem Lett, 2000).

Square brackets hold non-standard residues; d marks the D form. Peptide text beside a SMILES is read from it. Cys(NO) = N[C@@H](CSN=O)C(=O)O

Experiment [1] has as its system rhinovirus B14. Nature of the experiment: Compound was evaluated for the inactivation of HRV 14 3C protease activity expressed as kinact. The class given is functional, human rhinovirus type 14.
Experiment [2] deals with rhinovirus B14. As to the kind of experiment: Compound was evaluated for the inactivation of HRV 14 3C protease activity expressed as KI. The class given is functional, human rhinovirus type 14.

In the experiment with rhinovirus B14 [1], `C[C@@H](CSN=O)C(=O)N1CCC[C@H]1C(=O)O` showed a K inact of 0.457 min⁻¹. Moreover, the Ki in the experiment on rhinovirus B14 [2] came to 2110 µM.
The matching figures for `CC(=O)N[C@@H](C(=O)NC1C(O)OC(CO)C(O)C1O)C(C)(C)SN=O` (stereo not given in full): 0.982 min⁻¹ and 5040 µM.
On to `CC(=O)N[C@@H](C(=O)O)C(C)(C)SN=O`, for which the K inact in the experiment with rhinovirus B14 [1] turned out to be 0.243 min⁻¹. This compound showed a Ki in the experiment with rhinovirus B14 [2] of 1860 µM.
For `CC(=O)N[C@@H](CCC(=O)O)C(=O)N[C@@H](C)C(=O)N[C@@H](CC(C)C)C(=O)N[C@@H](Cc1ccccc1)C(=O)N[C@@H](CCC(N)=O)C(=O)N[C@@H](CSN=O)C(=O)NCC(=O)O` (Ac-EALFQ[Cys(NO)]G-OH), in the experiment on rhinovirus B14 [1], the K inact worked out at 0.107 min⁻¹. The Ki with rhinovirus B14 [2] worked out at 20 µM.
The matching figures for `N[C@@H](CCC(=O)N[C@@H](CSN=O)C(=O)NCC(=O)O)C(=O)O` [S-NITROSOGLUTATHIONE]: 0.237 min⁻¹ and 360 µM.
